Source: patent US10835533B2, “1 -((3S,4R)-4-(3-fluorophenyl)-1-(2-methoxyethyl)pyrrolidin-3-yl)-3-(4-methyl-3-(2-methylpyrimidin-5-yl)-1-phenyl-1H-pyrazol-5-yl)urea as a TrkA kinase inhibitor” (Array BioPharma Inc., priority 2014, dated 2020)

How the values were obtained:
Test in all cases: KinaseProfiler kinase profiling
Type in all cases: biochemical
Conditions in all cases: 10 μM, ATP near Km
FGFR1 = biological target: T1, FGFR1 (Homo sapiens, UniProt P11362)
T1 construct: purchased Millipore, Inc. (KinaseProfiler service)
Method in brief: (§1)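 Percent of control (POC) read-out, averaged over two replicate wells. Compound concentration 10 μM; ATP set close to each enzyme's Km.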

DAPK2 = biological target: T2, DAPK2 (Homo sapiens, UniProt Q9UIK4)
T2 construct: purchased Millipore, Inc. (KinaseProfiler service)
Method in brief: as §1

CDK1/cyclinB = biological target: T3, CDK1/cyclinB (Homo sapiens, UniProt P06493)
T3 construct: purchased Millipore, Inc. (KinaseProfiler service)
Method in brief: as §1

TBK1 = biological target: T4, TBK1 (Homo sapiens, UniProt Q9UHD2)
T4 construct: purchased Millipore, Inc. (KinaseProfiler service)
Method in brief: as §1

TEC Activated = biological target: T5, TEC Activated (Homo sapiens, UniProt P42680)
T5 construct: purchased Millipore, Inc. (KinaseProfiler service)
Method in brief: as §1

BTK = biological target: T6, BTK (Homo sapiens, UniProt Q06187)
T6 construct: purchased Millipore, Inc. (KinaseProfiler service)
Method in brief: as §1

PKD2 = biological target: T7, PKD2 (Homo sapiens, UniProt Q9BZL6)
T7 construct: purchased Millipore, Inc. (KinaseProfiler service)
Method in brief: as §1

CLK3 = biological target: T8, CLK3 (Homo sapiens, UniProt P49761)
T8 construct: purchased Millipore, Inc. (KinaseProfiler service)
Method in brief: as §1

PRKG1beta = biological target: T9, PRKG1beta (Homo sapiens, UniProt Q13976)
T9 construct: purchased Millipore, Inc. (KinaseProfiler service)
Method in brief: as §1

PKCiota = biological target: T10, PKCiota (Homo sapiens, UniProt P41743)
T10 construct: purchased Millipore, Inc. (KinaseProfiler service)
Method in brief: as §1

KDR = biological target: T11, KDR (Homo sapiens, UniProt P35968)
T11 construct: purchased Millipore, Inc. (KinaseProfiler service)
Method in brief: as §1

Abl-P = biological target: T12, Abl-P (Homo sapiens, UniProt P00519)
T12 construct: purchased Millipore, Inc. (KinaseProfiler service)
Method in brief: as §1

GSK3alpha = biological target: T13, GSK3alpha (Homo sapiens, UniProt P49840)
T13 construct: purchased Millipore, Inc. (KinaseProfiler service)
Method in brief: as §1

PDK1 = biological target: T14, PDK1 (Homo sapiens, UniProt O15530)
T14 construct: purchased Millipore, Inc. (KinaseProfiler service)
Method in brief: as §1

MINK = biological target: T15, MINK (Homo sapiens, UniProt Q8N4C8)
T15 construct: purchased Millipore, Inc. (KinaseProfiler service)
Method in brief: as §1

Rsk2 = biological target: T16, Rsk2 (Homo sapiens, UniProt P51812)
T16 construct: purchased Millipore, Inc. (KinaseProfiler service)
Method in brief: as §1

NEK2 = biological target: T17, NEK2 (Homo sapiens, UniProt P51955)
T17 construct: purchased Millipore, Inc. (KinaseProfiler service)
Method in brief: as §1

ErbB4 = biological target: T18, ErbB4 (Homo sapiens, UniProt Q15303)
T18 construct: purchased Millipore, Inc. (KinaseProfiler service)
Method in brief: as §1

GRK6 = biological target: T19, GRK6 (Homo sapiens, UniProt P43250)
T19 construct: purchased Millipore, Inc. (KinaseProfiler service)
Method in brief: as §1

TAK1-TAB1 = biological target: T20, TAK1-TAB1 (Homo sapiens, UniProt O43318)
T20 construct: purchased Millipore, Inc. (KinaseProfiler service)
Method in brief: as §1

CK1gamma1 = biological target: T21, CK1gamma1 (Homo sapiens, UniProt Q9HCP0)
T21 construct: purchased Millipore, Inc. (KinaseProfiler service)
Method in brief: as §1

MuSK = biological target: T22, MuSK (Homo sapiens, UniProt O15146)
T22 construct: purchased Millipore, Inc. (KinaseProfiler service)
Method in brief: as §1

ERK1 = biological target: T23, ERK1 (Homo sapiens, UniProt P27361)
T23 construct: purchased Millipore, Inc. (KinaseProfiler service)
Method in brief: as §1

NEK11 = biological target: T24, NEK11 (Homo sapiens, UniProt Q8NG66)
T24 construct: purchased Millipore, Inc. (KinaseProfiler service)
Method in brief: as §1

TLK2 = biological target: T25, TLK2 (Homo sapiens, UniProt Q86UE8)
T25 construct: purchased Millipore, Inc. (KinaseProfiler service)
Method in brief: as §1

Haspin = biological target: T26, Haspin (Homo sapiens, UniProt Q8TF76)
T26 construct: purchased Millipore, Inc. (KinaseProfiler service)
Method in brief: as §1

MAPKAP-K5 = biological target: T27, MAPKAP-K5 (Homo sapiens, UniProt Q8IW41)
T27 construct: purchased Millipore, Inc. (KinaseProfiler service)
Method in brief: as §1

Flt4 = biological target: T28, Flt4 (Homo sapiens, UniProt P35916)
T28 construct: purchased Millipore, Inc. (KinaseProfiler service)
Method in brief: as §1

TrkB = biological target: T29, TrkB (Homo sapiens, UniProt Q16620)
T29 construct: purchased Millipore, Inc. (KinaseProfiler service)
Method in brief: as §1

TAO2 = biological target: T30, TAO2 (Homo sapiens, UniProt Q9UL54)
T30 construct: purchased Millipore, Inc. (KinaseProfiler service)
Method in brief: as §1

MKK4_m = biological target: T31, MKK4_m (Mus musculus, UniProt P47809)
T31 construct: purchased Millipore, Inc. (KinaseProfiler service)
Method in brief: as §1

ALK4 = biological target: T32, ALK4 (Homo sapiens, UniProt P36896)
T32 construct: purchased Millipore, Inc. (KinaseProfiler service)
Method in brief: as §1

CSK = biological target: T33, CSK (Homo sapiens, UniProt P41240)
T33 construct: purchased Millipore, Inc. (KinaseProfiler service)
Method in brief: as §1

EphB1 = biological target: T34, EphB1 (Homo sapiens, UniProt P54762)
T34 construct: purchased Millipore, Inc. (KinaseProfiler service)
Method in brief: as §1

PDGFRalpha = biological target: T35, PDGFRalpha (Homo sapiens, UniProt P16234)
T35 construct: purchased Millipore, Inc. (KinaseProfiler service)
Method in brief: as §1

PAK6 = biological target: T36, PAK6 (Homo sapiens, UniProt Q9NQU5)
T36 construct: purchased Millipore, Inc. (KinaseProfiler service)
Method in brief: as §1

MRCKalpha = biological target: T37, MRCKalpha (Homo sapiens, UniProt Q5VT25)
T37 construct: purchased Millipore, Inc. (KinaseProfiler service)
Method in brief: as §1

TAO1 = biological target: T38, TAO1 (Homo sapiens, UniProt Q7L7X3)
T38 construct: purchased Millipore, Inc. (KinaseProfiler service)
Method in brief: as §1

IRR = biological target: T39, IRR (Homo sapiens, UniProt P14616)
T39 construct: purchased Millipore, Inc. (KinaseProfiler service)
Method in brief: as §1

IR Activated = biological target: T40, IR Activated (Homo sapiens, UniProt P06213)
T40 construct: purchased Millipore, Inc. (KinaseProfiler service)
Method in brief: as §1

ARK5 = biological target: T41, ARK5 (Homo sapiens, UniProt O60285)
T41 construct: purchased Millipore, Inc. (KinaseProfiler service)
Method in brief: as §1

T22 sequence (O15146 24-869): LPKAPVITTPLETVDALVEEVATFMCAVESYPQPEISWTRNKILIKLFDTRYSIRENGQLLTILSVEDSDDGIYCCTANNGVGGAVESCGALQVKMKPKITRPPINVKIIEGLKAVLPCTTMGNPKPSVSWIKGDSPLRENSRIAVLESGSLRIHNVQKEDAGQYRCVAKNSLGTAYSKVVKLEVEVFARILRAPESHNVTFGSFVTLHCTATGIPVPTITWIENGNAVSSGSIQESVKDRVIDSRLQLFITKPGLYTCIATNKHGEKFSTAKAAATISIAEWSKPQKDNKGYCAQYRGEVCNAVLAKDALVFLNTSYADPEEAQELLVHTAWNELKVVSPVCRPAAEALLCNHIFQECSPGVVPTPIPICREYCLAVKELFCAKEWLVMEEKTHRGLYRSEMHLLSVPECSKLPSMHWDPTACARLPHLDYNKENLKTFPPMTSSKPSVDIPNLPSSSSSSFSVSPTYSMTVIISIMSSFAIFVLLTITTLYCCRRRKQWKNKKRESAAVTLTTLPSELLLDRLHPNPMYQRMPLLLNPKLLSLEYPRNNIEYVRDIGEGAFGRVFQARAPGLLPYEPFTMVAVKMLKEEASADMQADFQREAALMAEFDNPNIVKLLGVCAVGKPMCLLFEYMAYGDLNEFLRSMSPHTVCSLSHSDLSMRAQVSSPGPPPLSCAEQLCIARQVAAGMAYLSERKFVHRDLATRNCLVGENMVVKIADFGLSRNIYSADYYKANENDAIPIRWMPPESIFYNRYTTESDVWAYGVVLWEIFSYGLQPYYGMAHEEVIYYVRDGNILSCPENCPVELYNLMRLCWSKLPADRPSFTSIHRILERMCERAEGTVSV
T13 sequence (P49840 whole entry): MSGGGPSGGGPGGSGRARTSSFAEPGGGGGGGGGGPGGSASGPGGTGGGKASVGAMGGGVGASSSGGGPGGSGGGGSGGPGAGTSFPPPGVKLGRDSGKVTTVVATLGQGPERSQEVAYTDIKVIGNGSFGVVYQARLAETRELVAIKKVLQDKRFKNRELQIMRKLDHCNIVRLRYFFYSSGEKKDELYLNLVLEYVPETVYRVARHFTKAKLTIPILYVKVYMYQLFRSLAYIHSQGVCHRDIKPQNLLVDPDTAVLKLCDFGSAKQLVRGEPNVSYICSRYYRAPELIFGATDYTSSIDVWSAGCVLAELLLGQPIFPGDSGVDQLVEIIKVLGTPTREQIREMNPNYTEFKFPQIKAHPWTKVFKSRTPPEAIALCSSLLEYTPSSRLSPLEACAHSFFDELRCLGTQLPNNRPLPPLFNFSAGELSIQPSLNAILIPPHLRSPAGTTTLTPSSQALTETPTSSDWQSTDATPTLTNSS
T23 sequence (P27361 whole entry): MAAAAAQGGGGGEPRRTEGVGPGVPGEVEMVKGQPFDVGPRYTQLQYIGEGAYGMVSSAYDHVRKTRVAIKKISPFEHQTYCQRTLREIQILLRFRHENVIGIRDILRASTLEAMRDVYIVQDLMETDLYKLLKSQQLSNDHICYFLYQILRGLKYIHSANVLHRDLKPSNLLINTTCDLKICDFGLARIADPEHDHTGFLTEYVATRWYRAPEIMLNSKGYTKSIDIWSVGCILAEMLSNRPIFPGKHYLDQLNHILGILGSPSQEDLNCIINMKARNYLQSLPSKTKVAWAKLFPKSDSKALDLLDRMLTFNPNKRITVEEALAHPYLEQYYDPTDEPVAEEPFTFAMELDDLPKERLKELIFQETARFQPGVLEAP
T21 sequence (Q9HCP0 whole entry): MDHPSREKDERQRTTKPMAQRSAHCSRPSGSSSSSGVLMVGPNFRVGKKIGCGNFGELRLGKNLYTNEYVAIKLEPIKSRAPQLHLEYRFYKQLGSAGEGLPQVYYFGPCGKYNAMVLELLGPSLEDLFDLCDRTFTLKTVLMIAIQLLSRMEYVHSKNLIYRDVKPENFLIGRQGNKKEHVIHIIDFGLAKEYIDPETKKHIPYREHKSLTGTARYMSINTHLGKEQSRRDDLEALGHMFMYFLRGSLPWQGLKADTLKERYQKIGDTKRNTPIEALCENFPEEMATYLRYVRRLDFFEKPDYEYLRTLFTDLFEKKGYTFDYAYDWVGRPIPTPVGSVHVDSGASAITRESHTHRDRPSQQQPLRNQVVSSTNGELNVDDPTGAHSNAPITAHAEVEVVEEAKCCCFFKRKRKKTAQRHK
T5 sequence (P42680 whole entry): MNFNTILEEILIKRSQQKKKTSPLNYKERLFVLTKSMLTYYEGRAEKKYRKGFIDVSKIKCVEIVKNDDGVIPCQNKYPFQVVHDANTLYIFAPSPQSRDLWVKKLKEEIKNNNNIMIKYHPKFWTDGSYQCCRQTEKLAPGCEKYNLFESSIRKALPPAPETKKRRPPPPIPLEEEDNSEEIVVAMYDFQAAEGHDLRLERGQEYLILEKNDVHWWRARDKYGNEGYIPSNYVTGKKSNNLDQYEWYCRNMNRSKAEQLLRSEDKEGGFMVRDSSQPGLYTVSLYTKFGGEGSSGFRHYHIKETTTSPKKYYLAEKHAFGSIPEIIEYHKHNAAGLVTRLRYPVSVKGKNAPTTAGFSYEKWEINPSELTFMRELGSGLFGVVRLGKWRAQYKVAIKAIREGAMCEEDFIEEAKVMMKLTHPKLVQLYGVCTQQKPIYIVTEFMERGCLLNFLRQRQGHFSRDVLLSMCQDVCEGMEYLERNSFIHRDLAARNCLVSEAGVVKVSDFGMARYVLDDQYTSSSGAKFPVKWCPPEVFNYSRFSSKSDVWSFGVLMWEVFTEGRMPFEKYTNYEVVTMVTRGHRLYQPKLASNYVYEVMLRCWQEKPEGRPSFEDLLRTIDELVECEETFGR
T34 sequence (P54762 18-984): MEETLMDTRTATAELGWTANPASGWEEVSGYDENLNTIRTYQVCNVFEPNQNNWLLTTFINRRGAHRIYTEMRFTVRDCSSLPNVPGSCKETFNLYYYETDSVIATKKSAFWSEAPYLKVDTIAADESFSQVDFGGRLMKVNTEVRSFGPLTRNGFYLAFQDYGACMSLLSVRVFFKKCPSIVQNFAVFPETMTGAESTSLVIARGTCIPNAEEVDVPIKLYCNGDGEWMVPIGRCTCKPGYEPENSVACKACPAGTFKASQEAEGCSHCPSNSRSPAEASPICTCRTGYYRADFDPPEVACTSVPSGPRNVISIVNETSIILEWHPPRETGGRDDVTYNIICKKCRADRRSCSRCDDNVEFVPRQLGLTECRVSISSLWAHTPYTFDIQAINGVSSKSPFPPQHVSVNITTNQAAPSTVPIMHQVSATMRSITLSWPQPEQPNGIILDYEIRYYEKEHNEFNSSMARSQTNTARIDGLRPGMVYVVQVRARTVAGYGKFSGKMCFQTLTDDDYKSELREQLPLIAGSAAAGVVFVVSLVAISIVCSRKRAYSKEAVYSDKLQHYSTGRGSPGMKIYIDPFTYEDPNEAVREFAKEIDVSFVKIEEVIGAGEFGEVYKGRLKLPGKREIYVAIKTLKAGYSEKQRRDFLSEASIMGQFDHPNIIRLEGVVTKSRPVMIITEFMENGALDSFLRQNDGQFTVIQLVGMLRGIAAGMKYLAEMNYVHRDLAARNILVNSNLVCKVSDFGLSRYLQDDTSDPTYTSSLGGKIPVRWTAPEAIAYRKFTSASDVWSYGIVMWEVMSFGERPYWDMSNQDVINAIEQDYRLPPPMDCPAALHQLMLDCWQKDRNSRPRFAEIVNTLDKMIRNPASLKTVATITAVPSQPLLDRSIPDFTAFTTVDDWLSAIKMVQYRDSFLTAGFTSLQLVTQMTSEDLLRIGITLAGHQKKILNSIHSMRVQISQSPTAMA
T31 sequence (P47809 whole entry): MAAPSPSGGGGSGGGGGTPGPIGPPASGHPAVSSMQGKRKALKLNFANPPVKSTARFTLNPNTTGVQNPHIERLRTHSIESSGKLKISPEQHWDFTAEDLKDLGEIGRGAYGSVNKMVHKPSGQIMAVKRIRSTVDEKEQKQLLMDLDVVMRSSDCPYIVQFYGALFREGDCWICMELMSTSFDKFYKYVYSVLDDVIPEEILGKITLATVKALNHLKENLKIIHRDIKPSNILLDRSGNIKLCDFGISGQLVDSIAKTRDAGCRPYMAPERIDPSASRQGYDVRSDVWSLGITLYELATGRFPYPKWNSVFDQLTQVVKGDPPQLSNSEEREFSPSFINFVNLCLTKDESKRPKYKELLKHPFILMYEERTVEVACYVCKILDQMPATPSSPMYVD
T26 sequence (Q8TF76 whole entry): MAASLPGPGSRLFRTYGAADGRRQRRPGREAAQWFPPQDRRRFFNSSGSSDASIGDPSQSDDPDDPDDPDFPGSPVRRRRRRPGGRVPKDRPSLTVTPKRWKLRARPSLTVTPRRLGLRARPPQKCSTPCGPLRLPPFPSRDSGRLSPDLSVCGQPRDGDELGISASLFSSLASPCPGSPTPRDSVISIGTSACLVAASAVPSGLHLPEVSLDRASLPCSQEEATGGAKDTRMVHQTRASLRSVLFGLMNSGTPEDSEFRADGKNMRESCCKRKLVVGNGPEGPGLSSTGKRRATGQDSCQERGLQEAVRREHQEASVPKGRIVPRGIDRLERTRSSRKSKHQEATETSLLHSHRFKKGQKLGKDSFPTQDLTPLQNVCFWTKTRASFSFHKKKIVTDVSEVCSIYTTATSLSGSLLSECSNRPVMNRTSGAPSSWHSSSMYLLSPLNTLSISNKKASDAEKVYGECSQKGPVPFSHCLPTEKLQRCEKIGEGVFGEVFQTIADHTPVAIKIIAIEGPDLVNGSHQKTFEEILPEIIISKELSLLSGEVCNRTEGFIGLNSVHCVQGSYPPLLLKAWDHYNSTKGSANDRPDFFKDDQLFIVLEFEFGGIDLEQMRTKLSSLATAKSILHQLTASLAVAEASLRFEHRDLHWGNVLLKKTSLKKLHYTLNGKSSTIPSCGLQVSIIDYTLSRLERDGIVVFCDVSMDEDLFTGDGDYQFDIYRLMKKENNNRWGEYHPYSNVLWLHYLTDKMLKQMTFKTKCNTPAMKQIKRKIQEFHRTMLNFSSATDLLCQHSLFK

- Avg POC (FGFR1): 117 POC
- Avg POC (DAPK2): 97 POC
- Avg POC (CDK1/cyclinB): 108 POC
- Avg POC (TBK1): 114.5 POC
- Avg POC (TEC Activated): 97 POC
- Avg POC (BTK): 114 POC
- Avg POC (PKD2): 94.5 POC
- Avg POC (CLK3): 94.5 POC
- Avg POC (PRKG1beta): 95.5 POC
- Avg POC (PKCiota): 91 POC
- Avg POC (KDR): 102.5 POC
- Avg POC (Abl-P): 110.5 POC
- Avg POC (GSK3alpha): 109.5 POC
- Avg POC (PDK1): 104 POC
- Avg POC (MINK): 105 POC
- Avg POC (Rsk2): 93 POC
- Avg POC (NEK2): 95 POC
- Avg POC (ErbB4): 107.5 POC
- Avg POC (GRK6): 98 POC
- Avg POC (TAK1-TAB1): 101.5 POC
- Avg POC (CK1gamma1): 78.5 POC
- Avg POC (MuSK): 95 POC
- Avg POC (ERK1): 94.5 POC
- Avg POC (NEK11): 94 POC
- Avg POC (TLK2): 101.5 POC
- Avg POC (Haspin): 96.5 POC
- Avg POC (MAPKAP-K5): 89.5 POC
- Avg POC (Flt4): 98.5 POC
- Avg POC (TrkB): 1.5 POC
- Avg POC (TAO2): 100 POC
- Avg POC (MKK4_m): 125 POC
- Avg POC (ALK4): 106.5 POC
- Avg POC (CSK): 100 POC
- Avg POC (EphB1): 105.5 POC
- Avg POC (PDGFRalpha): 96 POC
- Avg POC (PAK6): 114.5 POC
- Avg POC (MRCKalpha): 90.5 POC
- Avg POC (TAO1): 96 POC
- Avg POC (IRR): 104.5 POC
- Avg POC (IR Activated): 105.5 POC
- Avg POC (ARK5): 104.5 POC
SMILES: COCCN1C[C@@H](NC(=O)Nc2c(C)c(-c3cnc(C)nc3)nn2-c2ccccc2)[C@H](c2cccc(F)c2)C1 [Compound 1, 1-((3S,4R)-4-(3-fluorophenyl)-1-(2-methoxyethyl)pyrrolidin-3-yl)-3-(4-methyl-3-(2-methylpyrimidin-5-yl)-1-phenyl-1H-pyrazol-5-yl)urea]
